Assay [1] relates to IgE-stimulated footpad edema. The assay can be described thus: Mouse IgE-stimulated footpad edema reaction. The format is in vivo. To be noted: C57BL/6 male mice, oral 0.1 to 500 mg/kg, compared with positive control group. Put shortly: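 Male C57BL/6 mice (9–11 weeks, n=5) sensitised one day earlier by footpad injection of anti-DNP-BSA IgE serum; compound given orally in 0.5% methylcellulose at 0.1 to 500 mg/kg, then DNP-BSA i.v. 2 h later. Footpad swelling measured at 10–30 min, expressed as AUC and % suppression versus vehicle control.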

Assay [2] deals with PGD2 production from IgE-stimulated RBL-2H3 cells. The assay can be described thus: Suppressing action on PGD2 production from IgE-stimulated RBL-2H3 cells. The format is cell-based. Conditions: Rattus norvegicus, 10 min, IgE/DNP-BSA stimulated RBL-2H3 cells, read-out: PGD2 production suppression ratio. Put shortly: (§1)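 Rat RBL-2H3 mastocytoma cells, sensitized 30 min with anti-DNP-BSA IgE, then given test compound in 0.5% FBS medium and stimulated with DNP-BSA (100 ng/ml final). Supernatant PGD2 and LTB4 were measured by EIA after 10 min. Suppression ratio is calculated against unstimulated and stimulant-only controls.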

The subject of assay [3] is PGE2 production from IL-1β-stimulated MG-63 cells. Nature of the assay: Suppressing action on PGE2 production from IL-1β-stimulated MG-63 cells. The format is cell-based. Conditions: Homo sapiens, IL-1β 1 ng/ml, 18 hours, read-out: PGE2 production suppression ratio. Put shortly: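 Human osteosarcoma MG-63 cells (2×10^4/well) switched to 0.5% FBS medium, treated with compound, then stimulated with IL-1β at 1 ng/ml final for 18 h. Supernatant PGE2 measured by EIA; suppression ratio calculated against stimulated and unstimulated wells.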

For assay [4], the system named is zymosan-stimulated footpad edema. The assay can be described thus: Mouse zymosan-stimulated footpad edema reaction. The format is in vivo. To be noted: ICR female mice, oral 0.1 to 500 mg/kg, compared with positive control group. Put shortly: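 Female ICR mice (6–7 weeks, n=8) dosed orally at 0.1 to 500 mg/kg in 0.5% methylcellulose; 1 h later zymosan (1 mg/ml, 0.02 ml) injected s.c. into right hind footpad. Edema volume at 1 and 2 h gave AUC to 2 h; suppression (%) calculated against positive control AUC.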

The test system of assay [5] is LTB4 production from IgE-stimulated RBL-2H3 cells. The assay can be described thus: Suppressing action on LTB4 production from IgE-stimulated RBL-2H3 cells. The format is cell-based. To be noted: Rattus norvegicus, 10 min, IgE/DNP-BSA stimulated RBL-2H3 cells, read-out: LTB4 production suppression ratio. Put shortly:
as §1

The structures appear in SMILES notation. Where only a bound is given, the exact number is not on record here.

With `O=C(O)CCc1ccc(OCC2CCCC2)c(-c2ccc3ncsc3c2)c1` [Compound 299, 3-[3-(benzothiazol-6-yl)-4-cyclopentylmethyloxyphenyl]propionic acid], the “suppression of footpad edema caused by IgE stimulation” value in assay [1] is “suppressed the footpad edema”. Also, the inhibition at 0.4 µM in assay [2], in assay [3] and in assay [5] was at least 50% in each case. Also, the “suppression of footpad edema caused by zymosan” value in assay [4] is recorded as “suppressed footpad edema”.

`O=C(O)CCc1ccc(OCC2CCCCC2)c(-c2cnc3ccccc3c2)c1` [Compound 317, 3-[4-cyclohexylmethyloxy-3-(quinolin-3-yl)phenyl]propionic acid]: in assay [1], the “suppression of footpad edema caused by IgE stimulation” value is “suppressed the footpad edema”. The inhibition at 0.4 µM in assay [2], in assay [3] and in assay [5] was at least 50% throughout. Also, the “suppression of footpad edema caused by zymosan” value in assay [4] is on record as “suppressed footpad edema”.

The values are drawn from patent publication US6867320B2, “Substituted phenylalkanoic acid derivatives and use thereof” (Asahi Kasei Pharma Corporation, priority 2002, dated 2005).
